Earlier results, collected in patent US5849746A, “Substituted 1,4-piperazine-heteroaryl derivatives as 5-HT1D receptor agonists” (Merck Sharp & Dohme Ltd., priority 1995, dated 1998).

Key:
[1] = humans, therapeutic doses
[2] = test system: human 5-HT1Dα and 5-HT1Dβ receptor subtypes; settings: cf. WO-A-91/17174, Table 1

Q: With CNS(=O)(=O)Cc1ccc2[nH]cc(CCN(C)C)c2c1 [sumatriptan] as the compound, how does the adverse cardiovascular events [1] read?
A: The adverse cardiovascular events was “certain adverse cardiovascular events”.

Q: What about the “discrimination between human 5-HT1Dα and 5-HT1Dβ receptor subtypes (in words)” value [2] of the same compound?
A: The value was “barely discriminates between the human 5-HT1Dα and 5-HT1Dβ receptor subtypes”.
